This passage reports GI50 results from patent US20180141913A1 (EISAI R & D MANAGEMENT CO., LTD., priority 2016, published 2018).

Experiment [1] concerns MCF7-WT cells (MCF7 ER-alpha wildtype). The experiment is described as follows: In vitro proliferation (viability) assay, MCF7-WT cells. Format: cell-based. The conditions noted are these: Homo sapiens. On the procedure: (§1) MCF7 BUS cells (Coser, et al., (2003) PNAS 100(24): 13994-13999) were maintained in Dulbecco's Modified Eagle Medium supplemented with 10% FBS, 4 mM L-glutamine and 1× non-essential amino acids. Lenti-X 293T cells (Clontech, Cat #632180) were routinely cultured in Dulbecco's Modified Eagle Medium supplemented with 10% FBS.
(§2) The QuikChange II XL Site-Directed Mutagenesis Kit (Agilent Technologies, Cat #200523) was used to generate Y537S, Y537C, Y537N and D538G mutations within the ERα exon 8. Wild-type ESR1 cDNA (GeneCopoeia Inc., Cat# GC-A0322, accession no. NM 000125) was used as a template with the following mutagenesis primers (where the underlined nucleotides represent site mutations); Y537S: F-AAGAACGTGGTGCCCCTCTCTGACCTGCTGCTGGAGATG (SEQ ID NO: 1), R-CATCTCCAGCAGCAGGTCAGAGAGGGGCACCACGTTCTT (SEQ ID NO: 2); Y537N: F-AAGAACGTGGTGCCCCTCAATGACCTGCTGCTGGAGATG (SEQ ID NO: 3), R-CATCTCCAGCAGCAGGTCATTGAGGGGCACCACGTTCTT (SEQ ID NO: 4); Y537C: F-AAGAACGTGGTGCCCCTCTGTGACCTGCTGCTGGAGATG (SEQ ID NO: 5), R-CATCTCCAGCAGCAGGTCACAGAGGGGCACCACGTTCTT (SEQ ID NO: 6); D538G: F-AACGTGGTGCCCCTCTATGGCCTGCTGCTGGAGATGCTG (SEQ ID NO: 7), R-CAGCATCTCCAGCAGCAGGCCATAGAGGGGCACCACGTT (SEQ ID NO: 8). WT and mutant ESR1 cDNAs were cloned into the designation lentiviral vector pLenti6.3/V5-Dest (Invitrogen, Cat #V533-06). To make lentivirus, DNAs (WT and mutant ESR1) were co-transfected with packaging plasmids into Lenti-X 293T cells using TransIT (Mirus, Cat #MIR 2700). 48 h post-transfection, virus containing media was filtered and added to MCF7 cells in the presence of 8 µg/ml polybrene overnight. Two days following infection, cells were placed under selection with 10 µg/ml blasticidin for 2 weeks for stable expression.
(§3) MCF7-WT and -Y537S cells were seeded at 1500 cells/well in black-walled 96-well plates (assay plates, Costar, Cat #3904). In parallel, cells were also seeded in a separate 96-well plate (8 wells/cell line, control plate) for which a CTG (CellTiter-Glo® Luminescent Viability Assay, Promega, Cat #G7572) was measured the following day (day 0 reading). The day 0 reading was used for the GI50 calculation at the termination of the experiment. The day following seeding, compounds were added to assay plates. Briefly, a 1:4 serial dilution was prepared in DMSO at 200× final concentration for a total of 10 concentrations (9 dilutions containing compound and one is DMSO only). Serially diluted compounds were pipetted into medium to prepare a compound-medium mix at 10× final concentration. 10 μl of compound-medium mix was added to MCF7-WT and -Y537S cells at 3 wells/concentration (triplicate for each concentration). On day 3, media/compound was removed and replaced with fresh media/compound as described above. On day 6, CTG was measured and compared to day 0 readings from control plate to assess GI50.

In experiment [2] the test system is MCF7-Y537S cells (MCF7 ER-alpha Y537S mutant). The experiment can be described thus: In vitro proliferation (viability) assay, MCF7-Y537S cells. Format: cell-based. Particulars: Homo sapiens. The procedure:
as §1, §2, §3

Setting [3] is: MCF7, CellTiter-Glo, day 6 vs day 0, average ± standard deviation, free base and/or salt forms, read-out: MCF7 WT GI50.
Where [4] appears, read: MCF7, CellTiter-Glo, day 6 vs day 0, average ± standard deviation, free base and/or salt forms, read-out: MCF7 Y537S GI50.

Where two headings read alike, the source gives them in different places.

Usually GI50 stands for the concentration at which growth is held to half of that of the control.

For the compound `O=C(/C=C/CNCCOc1ccc(/C(=C(/CC(F)(F)F)c2ccccc2)c2ccc3[nH]ncc3c2)cc1)N1CCCC1` [Compound 14, (E)-1-(pyrrolidin-1-yl)-4-((2-(4-((E)-4,4,4-trifluoro-1-(1H-indazol-5-yl)-2-phenylbut-1-en-1-yl)phenoxy)ethyl)amino)but-2-en-1-one], the 50% growth inhibitory concentration (GI50) worked out at 1.73 ± 0.14 nM in experiment [1] (setting [3]) and 7.65 ± 3.38 nM in experiment [2] (setting [4]).

Take `CC/C(=C(/c1ccc(OCCNC/C=C/C(=O)O)cc1)c1ccc2[nH]ncc2c1)c1ccccc1` [Compound 73, (E)-4-((2-(4-((E)-1-(1H-indazol-5-yl)-2-phenylbut-1-en-1-yl)phenoxy)ethyl)amino)but-2-enoic acid]: the values for the GI50 in experiment [1] (setting [3]) and in experiment [2] (setting [4]) were 7.34 ± 0.58 nM and 155 ± 60.1 nM, respectively.

With `O=C(/C=C/CNCCOc1ccc(/C(=C(/CC(F)(F)F)c2ccccc2)c2ccc3[nH]ncc3c2)cn1)N1CCOCC1` [Compound 19, (E)-1-morpholino-4-((2-((5-((Z)-4,4,4-trifluoro-1-(1H-indazol-5-yl)-2-phenylbut-1-en-yl)pyridin-2-yl)oxy)ethyl)amino)but-2-en-1-one], the GI50 in experiment [1] (setting [3]) came out at 0.66 ± 0.05 nM; in experiment [2] (setting [4]) it was 3.15 ± 0.01 nM.

As for `CC/C(=C(/c1ccc(OCCNC/C=C/C(=O)NC)nc1)c1ccc2[nH]nc(C)c2c1)c1ccccc1` [Compound 49, (E)-N-methyl-4-((2-((5-((Z)-1-(3-methyl-1H-indazol-5-yl)-2-phenylbut-1-en-1-yl)pyridin-2-yl)oxy)ethyl)amino)but-2-enamide], the 50% growth inhibitory concentration (GI50) in experiment [1] (setting [3]) worked out at 173 ± 51.7 nM; in experiment [2] (setting [4]), 2420 nM.

Take `CNC(=O)/C=C/CNCCOc1ccc(/C(=C(/CCCl)c2ccccc2)c2ccc3[nH]nc(F)c3c2)cc1` [Compound 66, (E)-4-((2-(4-((E)-4-chloro-1-(3-fluoro-1H-indazol-5-yl)-2-phenylbut-1-en-1-yl)phenoxy)ethyl)amino)-N-methylbut-2-enamide]: the values for the GI50 in experiment [1] (setting [3]) and in experiment [2] (setting [4]) were 437 ± 55.2 nM and more than 10000 nM, respectively.

With `CC/C(=C(/c1ccc(OCCNCCCC(=O)NC)cc1)c1ccc2[nH]ncc2c1)c1ccccc1` [Compound 51, (E)-4-((2-(4-(1-(1H-indazol-5-yl)-2-phenylbut-1-en-1-yl)phenoxy)ethyl)amino)-N-methylbutanamide], the GI50 in experiment [1] (setting [3]) stood at 9.82 ± 1.92 nM; in experiment [2] (setting [4]) it was 190 ± 50.1 nM.

As to `CC/C(=C(/c1ccc(OCCNCCCC(=O)NC)nc1)c1ccc2[nH]ncc2c1)c1ccccc1` [Compound 62, (Z)-4-((2-((5-(1-(1H-indazol-5-yl)-2-phenylbut-1-en-1-yl)pyridin-2-yl)oxy)ethyl)amino)-N-methylbutanamide], the GI50 in experiment [1] (setting [3]) was 3.31 ± 0.43 nM; in experiment [2] (setting [4]), 14.5 ± 4.32 nM.

For the compound `O=C1CCCN1CCOc1ccc(/C(=C(/CC(F)(F)F)c2ccccc2)c2ccc3[nH]nc(F)c3c2)cc1` [Compound 70, (E)-1-(2-(4-(4,4,4-trifluoro-1-(3-fluoro-1H-indazol-5-yl)-2-phenylbut-1-en-1-yl)phenoxy)ethyl)pyrrolidin-2-one], the GI50 in experiment [1] (setting [3]) was 0.95 ± 0.25 nM; in experiment [2] (setting [4]) it was 6.18 ± 2.51 nM.

As for `CNC(=O)/C=C/CNCCOc1ccc(/C(=C(\c2ccccc2)C2CC2)c2ccc3[nH]nc(F)c3c2)cc1` [Compound 63, (E)-4-((2-(4-((E)-2-cyclopropyl-1-(3-fluoro-1H-indazol-5-yl)-2-phenylvinyl)phenoxy)ethyl)amino)-N-methylbut-2-enamide], the figures for the 50% growth inhibitory concentration (GI50) in experiment [1] (setting [3]) and in experiment [2] (setting [4]) were 17.9 ± 8.66 nM and 117 ± 11.6 nM, respectively.

Take `COCCNC(=O)/C=C/CNCCOc1ccc(/C(=C(/CC(F)(F)F)c2ccccc2)c2ccc3[nH]nc(F)c3c2)cn1` [Compound 20, (E)-N-(2-methoxyethyl)-4-((2-((5-((Z)-4,4,4-trifluoro-1-(3-fluoro-1H-indazol-5-yl)-2-phenylbut-1-en-1-yl)pyridin-2-yl)oxy)ethyl)amino)but-2-enamide]: the figures for the 50% growth inhibitory concentration (GI50) in experiment [1] (setting [3]) and in experiment [2] (setting [4]) were 0.66 ± 0.13 nM and 6.08 ± 2.69 nM, respectively.

For the compound `CC/C(=C(/c1ccc(OCCNCCCC(=O)N(C)C)cc1)c1ccc2[nH]ncc2c1)c1ccccc1` [Compound 4, (E)-4-(2-(4-(1-(1H-indazol-5-yl)-2-phenylbut-1-enyl)phenoxy)ethylamino)-N,N-dimethylbutanamide], the GI50 worked out at 4.09 ± 2.74 nM in experiment [1] (setting [3]) and 46.4 ± 23.2 nM in experiment [2] (setting [4]).

With `CNC(=O)/C=C/CNCCOc1ccc(/C(=C(/CCOC)c2ccccc2)c2ccc3[nH]nc(F)c3c2)cc1` [Compound 65, (E)-4-((2-(4-((E)-1-(3-fluoro-1H-indazol-5-yl)-4-methoxy-2-phenylbut-1-en-1-yl)phenoxy)ethyl)amino)-N-methylbut-2-enamide], the 50% growth inhibitory concentration (GI50) in experiment [1] (setting [3]) was 58.3 ± 48.1 nM; in experiment [2] (setting [4]) it was 310 ± 139 nM.

For the compound `CNC(=O)/C=C/CCNCCOc1ccc(/C(=C(/CC(F)(F)F)c2ccccc2)c2ccc3[nH]nc(F)c3c2)cn1` [Compound 6, (E)-N-methyl-5-((2-((5-((Z)-4,4,4-trifluoro-1-(3-fluoro-1H-indazol-5-yl)-2-phenylbut-1-en-1-yl)pyridin-2-yl)oxy)ethyl)amino)pent-2-enamide], the GI50 in experiment [1] (setting [3]) was 0.38 nM; in experiment [2] (setting [4]) it was 5.5 ± 0.47 nM.

In the case of `CNC(=O)/C=C/CNCCOc1ccc(/C(=C(\c2ccccc2)C2CCC2)c2ccc3[nH]ncc3c2)cc1` [Compound 11, (E)-4-((2-(4-((E)-2-cyclobutyl-1-(1H-indazol-5-yl)-2-phenylvinyl)phenoxy)ethyl)amino)-N-methylbut-2-enamide], the figures for the GI50 in experiment [1] (setting [3]) and in experiment [2] (setting [4]) were 2.08 ± 1.55 nM and 32.7 ± 22.2 nM, respectively.

On to `CN(C)C(=O)CCCNCCOc1ccc(/C(=C(/CC(F)(F)F)c2ccccc2)c2ccc3[nH]nc(F)c3c2)cc1` [Compound 1, (E)-N,N-dimethyl-4-((2-(4-(4,4,4-trifluoro-1-(3-fluoro-1H-indazol-5-yl)-2-phenylbut-1-en-1-yl)phenoxy)ethyl)amino)butanamide], for which the values for the GI50 in experiment [1] (setting [3]) and in experiment [2] (setting [4]) were 0.36 ± 0.16 nM and 3.79 ± 1.92 nM, respectively.

Consider `CC/C(=C(/c1ccc(OCCNC/C=C/C(=O)NC)cc1)c1ccc2[nH]ncc2c1)c1ccccc1` [Compound 50, (E)-4-((2-(4-((E)-1-(1H-indazol-5-yl)-2-phenylbut-1-en-1-yl)phenoxy)ethyl)amino)-N-methylbut-2-enamide], for which the results for the GI50 in experiment [1] (setting [3]) and in experiment [2] (setting [4]) were 4 ± 1.16 nM and 98.5 ± 81.5 nM, respectively.

Turning to `O=C(/C=C/CNCCOc1ccc(/C(=C(/CC(F)(F)F)c2ccccc2)c2ccc3[nH]nc(F)c3c2)cn1)N1CCOCC1` [Compound 18, (E)-1-morpholino-4-(2-(5-((Z)-4,4,4-trifluoro-1-(3-fluoro-1H-indazol-5-yl)-2-phenylbut-1-enyl)pyridin-2-yloxy)ethylamino)but-2-en-1-one], the GI50 stood at 0.72 ± 0.24 nM in experiment [1] (setting [3]) and 4.91 ± 0.65 nM in experiment [2] (setting [4]).

As to `O=C(CCCNCCOc1ccc(/C(=C(/CC(F)(F)F)c2ccccc2)c2ccc3[nH]nc(F)c3c2)cn1)N1CCCC1` [Compound 43], the concentration for 50% growth inhibition (GI50) in experiment [1] (MCF7, read-out: MCF7 WT GI50 (nM)) came to 0.15 nM; in experiment [2] (MCF7, read-out: MCF7 Y537S GI50 (nM)) it was 3.21 nM.

Turning to `CNC(=O)/C=C/CNCCOc1ccc(/C(=C/CC(F)(F)F)c2ccc3[nH]nc(F)c3c2)nn1` [Compound 69, (E)-N-methyl-4-((2-((6-((E)-4,4,4-trifluoro-1-(3-fluoro-1H-indazol-5-yl)but-1-en-1-yl)pyridazin-3-yl)oxy)ethyl)amino)but-2-enamide], the results for the 50% growth inhibitory concentration (GI50) in experiment [1] (setting [3]) and in experiment [2] (setting [4]) were 8080 nM and 9400 nM, respectively.
